Measured values reported in US9610264B2, “Compounds for the treatment and prevention of retroviral infections” (KFLP Biotech, LLC, priority 2012, dated 2017).

Tests used:
[1] = biological target: binding of HIV associated glycoprotein gp120 and the integrin α4β7 (Homo sapiens (Human), UniProt P13612+P26010); assay: ELISA assay of gp120 binding to integrin α4β7; design: species or system human (α4β7); HIV-1 ADA strain (gp120); conditions: inhibition of gp120/α4β7 binding, triplicate with two anti-gp120 antibodies, read-out: IC50 a4b7
Chain of binding of HIV associated glycoprotein gp120 and the integrin α4β7 (P13612 whole entry, looked up): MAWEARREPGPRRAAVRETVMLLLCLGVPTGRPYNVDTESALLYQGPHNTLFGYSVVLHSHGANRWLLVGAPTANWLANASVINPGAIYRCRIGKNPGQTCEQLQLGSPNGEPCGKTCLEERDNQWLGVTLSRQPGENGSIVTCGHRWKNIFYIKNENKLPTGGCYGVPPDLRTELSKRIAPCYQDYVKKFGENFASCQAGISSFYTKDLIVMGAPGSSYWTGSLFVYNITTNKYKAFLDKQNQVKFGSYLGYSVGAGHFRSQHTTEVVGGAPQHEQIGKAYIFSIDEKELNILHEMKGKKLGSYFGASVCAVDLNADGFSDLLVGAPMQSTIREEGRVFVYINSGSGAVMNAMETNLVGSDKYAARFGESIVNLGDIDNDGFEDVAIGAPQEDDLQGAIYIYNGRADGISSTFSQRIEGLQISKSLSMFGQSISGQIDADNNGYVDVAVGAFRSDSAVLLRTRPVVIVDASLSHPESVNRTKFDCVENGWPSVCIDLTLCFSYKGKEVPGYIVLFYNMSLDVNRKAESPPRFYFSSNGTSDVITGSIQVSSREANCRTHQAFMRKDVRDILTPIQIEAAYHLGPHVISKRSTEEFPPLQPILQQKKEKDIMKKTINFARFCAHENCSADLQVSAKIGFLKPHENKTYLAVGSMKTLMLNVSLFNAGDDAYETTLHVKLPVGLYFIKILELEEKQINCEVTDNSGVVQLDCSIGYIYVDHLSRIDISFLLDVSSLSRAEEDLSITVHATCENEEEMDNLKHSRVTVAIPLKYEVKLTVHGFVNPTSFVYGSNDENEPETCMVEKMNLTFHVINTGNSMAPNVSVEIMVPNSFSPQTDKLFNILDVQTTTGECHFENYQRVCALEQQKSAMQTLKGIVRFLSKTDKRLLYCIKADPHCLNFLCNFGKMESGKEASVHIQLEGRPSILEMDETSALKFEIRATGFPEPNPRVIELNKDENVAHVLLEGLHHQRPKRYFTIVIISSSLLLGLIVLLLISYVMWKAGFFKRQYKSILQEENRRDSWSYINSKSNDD
Chain of binding of HIV associated glycoprotein gp120 and the integrin α4β7 (P26010 whole entry, looked up): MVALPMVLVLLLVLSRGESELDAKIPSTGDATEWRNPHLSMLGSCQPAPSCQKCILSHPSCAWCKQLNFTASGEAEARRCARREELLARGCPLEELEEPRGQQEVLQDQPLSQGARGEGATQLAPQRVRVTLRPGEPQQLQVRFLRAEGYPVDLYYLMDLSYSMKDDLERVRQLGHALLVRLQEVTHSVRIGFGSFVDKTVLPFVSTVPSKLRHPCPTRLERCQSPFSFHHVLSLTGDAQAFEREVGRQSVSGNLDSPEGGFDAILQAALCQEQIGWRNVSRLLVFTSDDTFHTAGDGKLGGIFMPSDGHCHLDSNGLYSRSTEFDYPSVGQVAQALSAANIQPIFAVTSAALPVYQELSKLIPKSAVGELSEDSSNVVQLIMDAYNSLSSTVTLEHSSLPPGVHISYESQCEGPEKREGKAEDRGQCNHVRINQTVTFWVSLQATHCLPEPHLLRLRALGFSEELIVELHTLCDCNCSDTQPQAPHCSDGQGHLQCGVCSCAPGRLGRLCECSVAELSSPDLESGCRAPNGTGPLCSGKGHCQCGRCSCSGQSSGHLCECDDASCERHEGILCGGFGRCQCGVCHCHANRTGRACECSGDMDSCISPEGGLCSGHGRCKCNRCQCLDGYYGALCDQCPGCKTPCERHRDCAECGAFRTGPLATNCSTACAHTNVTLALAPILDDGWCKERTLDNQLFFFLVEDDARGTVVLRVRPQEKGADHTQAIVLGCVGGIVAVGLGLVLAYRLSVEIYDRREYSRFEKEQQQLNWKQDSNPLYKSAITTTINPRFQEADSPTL
Source text: A sandwich assay was developed to screen for compounds that inhibit the binding of a4b7 to gp120. Without inhibitors, gp120 and a4b7 bind and this complex can be identified by addition of a mouse anti-gp120 mAb (step 3). This a4b7*gp120anti-gp120 mAb complex is then sequestered on the bottom surface of a 96 welled-plate coated with an anti-mouse secondary mAb (step 4). The complex is then detected by addition of a biotinylated primary mAb against a4b7 (step 5) and detected using an HRP-avidin (step 6). A positive binding event is identified by the presence of HPR activity within each well. The addition of an inhibitor (step 2) blocks the binding between gp120 and a4b7 leading to a lack or reduction of HRP activity as shown in steps 2-5 at the bottom of the figure.
Step 1: Prepare the antigen plate • a. Prepare a PBS stock solution containing 1 μM gp120 and 1 μM α4β7 • b. Add a 200 μL aliquot to each well of the antigen plate.
Step 2: Add the inhibitor. • a. Add 20 μL of a 10× stock of the inhibitor in PBS pH 7.2 containing 1% DMSO • b. Incubate at 4° C. for 6 h with shaking. This delivers the antigen plate.
Step 3: Prepare the binding plate. • a. Aspirate each well of the binding plate • b. Wash three times with 200 μL of wash buffer (PBS pH 7.2, containing 0.05% Tween 20). • c. Add 100 μL of a 0.5 μg/mL stock of the mouse anti-gp120 mAb in PBS pH 7.2 • d. Shake for 1 h at 23° C.
Step 4: Sequester the gp120*α4β7 complex. • a. Aspirate each well of the binding plate. • b. Wash three times with 200 μL of wash buffer. • c. Transfer the contents of the antigen plate to the corresponding wells in the binding plate. • d. Shake for 1 h at 23° C.
Step 5: Develop the binding plate. • a. Aspirate each well of the binding plate. • b. Wash three times with 200 μL of wash buffer. • c. Add 100 μL of a 0.1 μg/mL of the rat anti-α4β7 mAb. • d. Shake for 1 h at 37° C. • e. Aspirate each well of the binding plate. • f. Wash three times with 200 μL of wash buffer. • g. Add 100 μL of 0.2 μg/mL solution of the HRP-conjugated strepavidin • h. Shake for 1 h at 37° C. • i. Aspirate each well of the binding plate. • j. Wash three times with 200 μL of wash buffer. • k. Develop using QuantaBlu fluorogenic peroxidase substrate (ThermoScientific) • l. Evaluate the fluorescence output on a HTS7000 plate reader (Perkin Elmer).
The ELISA assay was applied to screen the compounds in the table, below, to further characterize their activity against the binding of HIV associated glycoprotein gp120 and the integrin α4β7.
The five-step assay developed was applied to screen the compounds in the table below. […] The experiments were run in triplicate using two antibodies against gp120.

[2] = system: HIV-1 R9 (CXCR4-tropic strain); assay: Infectivity assay in HeLa reporter cell line (HeLa-CD4-Bgal); assay type: cell-based; conditions: HeLa reporter cells, HIV-1 R9, 36 h
Procedure: FIG. 2: Experimental outline to evaluate HIV infectivity in a HeLa reporter cell line HIV-1 particles are produced in 293T cells transfected with R9 HIV DNA in the absence of test compounds. Particles are collected, titrated by measuring the amount of p24 antigen and frozen until their use. In the infectivity assay HeLa-CD4-Bgal cells are preincubated for 20 min in the absence or presence of test compounds, and the viral particles are added. Infectivity is monitored with a beta-galactosidase enzymatic reaction 36 hours after infection. Test compounds and virus are left with the cells throughout the entire infection period.
Compounds were evaluated with a HeLa reporter cell line containing the bacterial b-galactosidase gene inserted in the cell chromosome under control of the viral LTR. […] HIV-1 R9 (CXCR4-tropic strain) was used in these experiments to challenge cells. Viruses were first produced by transfection of 293T cells with a plasmid DNA expressing HIV-1. Viral particles were harvested and frozen until use. Infectivity assays were performed incubating cells in the absence or presence of compounds for 20 min before addition of virus. Upon infection, virus and compounds were left with the cells for the entire period of infection (36 h). At that time the extent of infection was evaluated using a luminescent substrate of Bgal. FIG. 2 depicts the experimental outline used to evaluate the anti-HIV activity of lead compounds. Controls with known ARVs include AZT, a reverse-transcriptase inhibitor (RTI), and the HIV integrase inhibitor raltegravir. Controls with vehicle alone are also included

HIV-1-LAI strain = assay: Antiviral assay in PHA-P-activated PBMC, RT activity in supernatants; assay type: cell-based; conditions: day 7 RT activity
Procedure: Phytohemagglutinin (PHA)-P-activated PBMC were infected with the reference lymphotropic HIV-1-LAI strain (Wain-Hobson et al., Science, vol. 252, no. 5008, pp. 961-965 (1991)). This virus was amplified in vitro with PHA-P-activated blood mononuclear cells. Viral stocks were titrated using PHA-P-activated PBMC, and 50% tissue culture infectious doses (TCID50) was calculated using Karber's formula. PBMC were pretreated for 30 min by two concentrations of each molecule and infected with 125 TCID50 of this HIV-1 strain. AZT and T20 were used as reference anti-HIV molecule. Molecules were maintained throughout the culture, and cell supernatants were collected at day 7 post-infection and stored at −20° C. Viral replication was measured by quantifying reverse transcriptase (RT) activity in these cell culture supernatants using the Lenti RT activity kit (Cavidi). In parallel, cytotoxicity was evaluated on day 7 in uninfected PHA-P-activated PBMC using the colorimetric methyl-tetrazolium salt assay (MTS/PMS; Promega). Experiments were performed in triplicate and the inhibition of viral replication of the compounds was calculated using SoftMaxPro software (Molecular Devices Inc. CA, USA).
Dilutions in Cell Culture Medium Containing 0.1% DMSO (Final Concentration)

`O=C(CCc1ccccc1)Nc1ccccc1C(=O)NCc1ccccc1` [Compound 1] gave an IC50 [1] of 0.33 nM.
In the case of `Cc1ccc(CNC(=O)c2ccccc2NC(=O)CN2CCc3ccccc32)cc1` [Compound 3], the IC50 [1] is reported as 19.2 nM, the “Inhibition of HIV infectivity in %” value ([2]; 0.008 μM) is reported as 67.64% and the “Inhibition of HIV infectivity in %” value ([2]; 0.04 μM) is reported as 58.63%. The “Inhibition of HIV infectivity in %” value ([2]; 0.2 μM) was 61.6%, the “Inhibition of HIV infectivity in %” value ([2]; 1 μM) was 42.22% and the “Inhibition of HIV infectivity in %” value ([2]; 5 μM) was 12.81%. For the same compound, the “Inhibition of HIV infectivity in %” value ([2]; 25 μM) was 2.39%, the “Inhibition of HIV infectivity in %” value ([2]; 125 μM) was 0.19% and the EC50 [2] was 1690 nM. It also gave an EC90 [2] of 15200 nM.
In the case of enfuvirtide, the “inhibition of viral replication” value (HIV-1-LAI strain; 0.32 nM) is reported as −9% ± 3, the “inhibition of viral replication” value (HIV-1-LAI strain; 1.6 nM) is reported as 5% ± 15 and the “inhibition of viral replication” value (HIV-1-LAI strain; 8 nM) is reported as −13% ± 4. The “inhibition of viral replication” value (HIV-1-LAI strain; 40 nM) was 100% ± 0, the “inhibition of viral replication” value (HIV-1-LAI strain; 200 nM) was 100% ± 0 and the “inhibition of viral replication” value (HIV-1-LAI strain; 1000 nM) was 100% ± 0. The ED50 (HIV-1-LAI strain) was 28.9 nM, the ED70 (HIV-1-LAI strain) was 30 nM and the ED90 (HIV-1-LAI strain) was 31.7 nM.
`CC1(c2ccc(F)cc2)NC(=O)N(CC(=O)Nc2ccccc2C(=O)NCc2ccccc2)C1=O` (stereo not drawn) [Compound 7] gave an IC50 [1] of 0.46 nM.
`CC1CCCCN1CC(=O)Nc1ccccc1C(=O)NCc1ccccc1` (stereo not drawn) [Compound 9] was tested, and the IC50 [1] was 1.23 nM.
In the case of `Cc1ccc(CNC(=O)c2ccccc2NC(=O)CN2CCN(C(C)C(=O)NC3CC3)CC2)cc1` (stereo not drawn) [Compound 6], the IC50 [1] is reported as 0.61 nM.
`O=C(Cc1ccc(F)cc1)Nc1ccccc1C(=O)NCc1ccccc1` [Compound 2] was tested, and the IC50 [1] was 0.89 nM, the “Inhibition of HIV infectivity in %” value ([2]; 0.008 μM) was 69.28% and the “Inhibition of HIV infectivity in %” value ([2]; 0.04 μM) was 51.94%. For the same compound, the “Inhibition of HIV infectivity in %” value ([2]; 0.2 μM) was 62.3%, the “Inhibition of HIV infectivity in %” value ([2]; 1 μM) was 60.66% and the “Inhibition of HIV infectivity in %” value ([2]; 5 μM) was 13.81%. The “Inhibition of HIV infectivity in %” value ([2]; 25 μM) was 2.76%, the “Inhibition of HIV infectivity in %” value ([2]; 125 μM) was 4.1% and the EC50 [2] was 3400 nM. The EC90 [2] was 30600 nM, the “inhibition of viral replication” value (HIV-1-LAI strain; 3.2 nM) was 16% ± 4^ and the “inhibition of viral replication” value (HIV-1-LAI strain; 16 nM) was −6% ± 22^. The “inhibition of viral replication” value (HIV-1-LAI strain; 80 nM) was 4% ± 8, the “inhibition of viral replication” value (HIV-1-LAI strain; 400 nM) was 6% ± 16 and the “inhibition of viral replication” value (HIV-1-LAI strain; 2000 nM) was 22% ± 3^. The “inhibition of viral replication” value (HIV-1-LAI strain; 10000 nM) was 87% ± 9^, the ED50 (HIV-1-LAI strain) was 5590 ± 441 nM and the ED70 (HIV-1-LAI strain) was 8021 ± 710 nM. For the same compound, the ED90 (HIV-1-LAI strain) was 9826 ± 246 nM.
For `CCC(=O)Nc1cccc(C(=O)Nc2ccccc2C(=O)NCc2ccc(C)cc2)c1` [Compound 12], the IC50 [1] was 2.19 nM.
`CC(NC(=O)c1ccccc1NC(=O)CN1CCc2ccccc21)c1ccccc1` (stereo not drawn) [Compound 13] showed an IC50 [1] of 2.45 nM.
`CC(NC(=O)c1ccccc1NC(=O)CN1C(=O)NC(Cc2ccccc2)C1=O)c1ccccc1` (stereo not drawn) [Compound 15] showed an IC50 [1] of 2.8 nM.
`O=C(CN1CCN(Cc2ccsc2)CC1)Nc1ccccc1C(=O)NCc1ccccc1` [Compound 4] was tested, and the IC50 [1] was 0.27 nM.
In the case of `O=C(Nc1ccccc1C(=O)NCc1ccccc1)c1cccc([N+](=O)[O-])c1` [Compound 10], the IC50 [1] is reported as 1.53 nM.
`Cc1cn([C@H]2C[C@H](N=[N+]=[N-])[C@@H](CO)O2)c(=O)[nH]c1=O` [AZT, Zidovudine] was tested, and the inhibition at 0.00032 µM (HIV-1-LAI strain; Human immunodeficiency virus 1, 168 h, 0.32 nM, read-out: inhibition of viral replication) was 16%, the inhibition at 0.0016 µM (HIV-1-LAI strain; Human immunodeficiency virus 1, 168 h, 1.6 nM, read-out: inhibition of viral replication) was 59% and the inhibition at 0.008 µM (HIV-1-LAI strain; Human immunodeficiency virus 1, 168 h, 8 nM, read-out: inhibition of viral replication) was 95%. For the same compound, the inhibition at 0.04 µM (HIV-1-LAI strain; Human immunodeficiency virus 1, 168 h, 40 nM, read-out: inhibition of viral replication) was 100%, the inhibition at 0.2 µM (HIV-1-LAI strain; Human immunodeficiency virus 1, 168 h, 200 nM, read-out: inhibition of viral replication) was 100% and the inhibition at 1 µM (HIV-1-LAI strain; Human immunodeficiency virus 1, 168 h, 1000 nM, read-out: inhibition of viral replication) was 100%. It also gave an ED50 (HIV-1-LAI strain) of 1.3 nM, an ED70 (HIV-1-LAI strain) of 2.5 nM and an ED90 (HIV-1-LAI strain) of 6.6 nM.
For `CC(NC(=O)c1ccccc1NC(=O)CN1C(=O)C(=O)N(Cc2ccccc2)C1=O)c1ccccc1` (stereo not drawn) [Compound 5], the IC50 [1] was 0.64 nM.
